Assays:
Carbonic anhydrase 2 = Carbonic anhydrase 2 (Homo sapiens, UniProt P00918); experiment: Inhibition of human recombinant carbonic anhydrase 2 by stopped flow CO2 hydration method
Carbonic anhydrase 1 = Carbonic anhydrase 1 (Homo sapiens, UniProt P00915); experiment: Inhibition of human recombinant carbonic anhydrase 1 by stopped flow CO2 hydration method
Carbonic anhydrase 12 = Carbonic anhydrase 12 (Homo sapiens, UniProt O43570); experiment: Inhibition of human recombinant carbonic anhydrase 12 by stopped flow CO2 hydration method
Chain of Carbonic anhydrase 12 (O43570 whole entry): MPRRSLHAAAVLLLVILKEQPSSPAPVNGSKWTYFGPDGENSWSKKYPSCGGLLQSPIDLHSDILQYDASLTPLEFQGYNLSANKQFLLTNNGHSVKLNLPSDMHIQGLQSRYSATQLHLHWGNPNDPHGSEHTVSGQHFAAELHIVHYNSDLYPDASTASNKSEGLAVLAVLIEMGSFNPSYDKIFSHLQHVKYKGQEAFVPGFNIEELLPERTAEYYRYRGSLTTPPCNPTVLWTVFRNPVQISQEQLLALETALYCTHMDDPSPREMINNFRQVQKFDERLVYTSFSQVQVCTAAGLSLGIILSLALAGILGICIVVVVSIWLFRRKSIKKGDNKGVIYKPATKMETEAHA

Carbonic anhydrase 9 = Carbonic anhydrase 9 (Homo sapiens, UniProt Q16790); experiment: Inhibition of human recombinant carbonic anhydrase 9 by stopped flow CO2 hydration method

Chain of Carbonic anhydrase 1 (P00915 whole entry): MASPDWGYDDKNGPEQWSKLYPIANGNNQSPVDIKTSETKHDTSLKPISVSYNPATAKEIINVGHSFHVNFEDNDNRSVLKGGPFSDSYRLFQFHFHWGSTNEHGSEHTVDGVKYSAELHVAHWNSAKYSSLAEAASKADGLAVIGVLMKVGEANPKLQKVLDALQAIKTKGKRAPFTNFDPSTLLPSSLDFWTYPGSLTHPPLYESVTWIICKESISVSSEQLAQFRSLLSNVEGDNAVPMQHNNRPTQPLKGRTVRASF

`C=CCN1C(=O)C=C(C)OS1(=O)=O` gave a Ki (Carbonic anhydrase 2) of over 20 µM, a Ki (Carbonic anhydrase 1) of over 20 µM and a Ki (Carbonic anhydrase 12) of 0.103 µM. For the same compound, the Ki (Carbonic anhydrase 9) was 0.114 µM.
`C=CCOC1=NS(=O)(=O)OC(C)=C1` was tested, and the Ki (Carbonic anhydrase 2) was over 20 µM, the Ki (Carbonic anhydrase 1) was over 20 µM and the Ki (Carbonic anhydrase 9) was 0.199 µM.
With `C#CCOC1=NS(=O)(=O)OC(C)=C1` the Ki (Carbonic anhydrase 2) was over 20 µM and the Ki (Carbonic anhydrase 1) was over 20 µM.
Work on `CC1=CC(OCC#N)=NS(=O)(=O)O1` yielded a Ki (Carbonic anhydrase 2) of over 20 µM, a Ki (Carbonic anhydrase 1) of 2.9 µM and a Ki (Carbonic anhydrase 9) of 0.047 µM.
Work on `CC(=O)CN1C(=O)C=C(C)OS1(=O)=O` yielded a Ki (Carbonic anhydrase 2) of 2.18 µM, a Ki (Carbonic anhydrase 1) of 15.6 µM and a Ki (Carbonic anhydrase 9) of over 20 µM.
With `CC(=O)COC1=NS(=O)(=O)OC(C)=C1` the Ki (Carbonic anhydrase 2) was over 20 µM, the Ki (Carbonic anhydrase 1) was 2.49 µM and the Ki (Carbonic anhydrase 9) was over 20 µM.
With `CCOC(=O)CN1C(=O)C=C(C)OS1(=O)=O` the Ki (Carbonic anhydrase 2) was over 20 µM, the Ki (Carbonic anhydrase 1) was over 20 µM and the Ki (Carbonic anhydrase 9) was 0.047 µM.
Work on `CCOC(=O)COC1=NS(=O)(=O)OC(C)=C1` yielded a Ki (Carbonic anhydrase 2) of over 20 µM, a Ki (Carbonic anhydrase 1) of over 20 µM and a Ki (Carbonic anhydrase 9) of 0.043 µM.
Work on `CC1=CC(=O)N(Cc2ccccc2[N+](=O)[O-])S(=O)(=O)O1` yielded a Ki (Carbonic anhydrase 2) of over 20 µM, a Ki (Carbonic anhydrase 1) of over 20 µM and a Ki (Carbonic anhydrase 9) of 0.041 µM.
`CC1=CC(OCc2ccccc2[N+](=O)[O-])=NS(=O)(=O)O1` showed a Ki (Carbonic anhydrase 2) of over 20 µM, a Ki (Carbonic anhydrase 1) of over 20 µM and a Ki (Carbonic anhydrase 9) of 0.041 µM.
For `CC1=CC(=O)N(Cc2cccc([N+](=O)[O-])c2)S(=O)(=O)O1`, the Ki (Carbonic anhydrase 2) was over 20 µM, the Ki (Carbonic anhydrase 1) was over 20 µM and the Ki (Carbonic anhydrase 9) was 0.267 µM.
With `CC1=CC(OCc2cccc([N+](=O)[O-])c2)=NS(=O)(=O)O1` the Ki (Carbonic anhydrase 2) was over 20 µM, the Ki (Carbonic anhydrase 1) was over 20 µM and the Ki (Carbonic anhydrase 9) was over 20 µM.
Work on `CC1=CC(OCc2ccccc2Br)=NS(=O)(=O)O1` yielded a Ki (Carbonic anhydrase 2) of over 20 µM, a Ki (Carbonic anhydrase 1) of over 20 µM and a Ki (Carbonic anhydrase 9) of 0.249 µM.
For `CC1=CC(=O)N(Cc2cccc(Br)c2)S(=O)(=O)O1`, the Ki (Carbonic anhydrase 2) was over 20 µM, the Ki (Carbonic anhydrase 1) was over 20 µM and the Ki (Carbonic anhydrase 9) was 0.284 µM.
For `CC1=CC(=O)N(Cc2ccccc2F)S(=O)(=O)O1`, the Ki (Carbonic anhydrase 2) was over 20 µM, the Ki (Carbonic anhydrase 1) was over 20 µM and the Ki (Carbonic anhydrase 9) was 0.285 µM.
`CC1=CC(=O)N(Cc2cccc(F)c2)S(=O)(=O)O1` gave a Ki (Carbonic anhydrase 2) of over 20 µM, a Ki (Carbonic anhydrase 1) of over 20 µM and a Ki (Carbonic anhydrase 9) of 0.275 µM.
Compound `CC1=CC(OCc2cccc(F)c2)=NS(=O)(=O)O1` has a Ki (Carbonic anhydrase 2) of over 20 µM, a Ki (Carbonic anhydrase 1) of over 20 µM and a Ki (Carbonic anhydrase 9) of over 20 µM.
`CC1=CC(=O)N(Cc2c(F)cccc2F)S(=O)(=O)O1` showed a Ki (Carbonic anhydrase 2) of over 20 µM, a Ki (Carbonic anhydrase 1) of over 20 µM and a Ki (Carbonic anhydrase 9) of over 20 µM.
Compound `CC1=CC(=O)N(Cc2ccc(C#N)cc2)S(=O)(=O)O1` has a Ki (Carbonic anhydrase 2) of over 20 µM, a Ki (Carbonic anhydrase 1) of over 20 µM and a Ki (Carbonic anhydrase 9) of 0.309 µM.
In the case of `CC1=CC(=O)N(CC(=O)c2ccccc2)S(=O)(=O)O1`, the Ki (Carbonic anhydrase 2) is reported as over 20 µM, the Ki (Carbonic anhydrase 1) is reported as over 20 µM and the Ki (Carbonic anhydrase 9) is reported as 0.0057 µM.
Compound `CC1=CC(OCC(=O)c2ccccc2)=NS(=O)(=O)O1` has a Ki (Carbonic anhydrase 2) of over 20 µM, a Ki (Carbonic anhydrase 1) of over 20 µM and a Ki (Carbonic anhydrase 9) of 0.0153 µM.
In the case of `CC1=CC(=O)N(CC(=O)c2cccc([N+](=O)[O-])c2)S(=O)(=O)O1`, the Ki (Carbonic anhydrase 2) is reported as 0.0255 µM, the Ki (Carbonic anhydrase 1) is reported as 1.3 µM and the Ki (Carbonic anhydrase 9) is reported as 0.0168 µM.

Reference: ChEMBL document CHEMBL3352509, “Cyclic tertiary sulfamates: selective inhibition of the tumor-associated carbonic anhydrases IX and XII by N- and O-substituted acesulfame derivatives” (Eur J Med Chem, 2014)
